Measurements taken from patent publication US20220026415A1, “A METHOD FOR SCREENING A THERAPEUTIC AGENT FOR CANCER USING BINDING INHIBITOR OF CYCLIN-DEPENDENT KINASE 1 (CDK1)-CYCLIN B1 AND RETINOIC ACID RECEPTOR RESPONDER 1 (RARRES1) GENE KNOCKOUT ANIMAL MODEL” (NATIONAL CANCER CENTER, priority 2018, published 2022).
Where a SMILES comes first, the peptide text is derived from it. The star is where a group is joined. Cbz = O=C(OCc1ccccc1)*

Legend:
Rarres1 KO MEFs = experiment: Nocodazole treatment of MEFs, flow cytometry, cell counting and western blotting; format: cell-based, mouse
Procedure: For analysis of cell cycles or sub-G1 DNA contents, cells were immobilized with 80% ice-cold ethanol, and stored at 4° C. The cells were stained with PBS containing 50 ug/ml of propidium iodide (PI) and 100 ug/ml of RNase A at 37° C. for 30 minutes. DNA content was analyzed by FACS Calibur flow cytometry and the results thereof were analyzed using Cellquest software (Becton-Dickinson Immunocytometry Systems, San Diego, Calif.) and Modfit LT 3.3 software. At least 10,000 cells were analyzed per sample.
Growth was examined using MEFs derived from 13.5-day-old embryos. Cells were plated on a 6-well plate at a density of 20,000 cells/well, and then the number of the cells was counted every day from the following day for 5 days. To examine cell survival in response to nocodazole, which is a cell division inhibitor, cells were treated with 50 ng/ml or 100 ng/ml of nocodazole for 48 hours and cultured. Subsequently, the cells were treated with trypsin/EDTA and detached, followed by cell counting.
It was determined whether a mitotic stress-inducing drug such as nocodazole affects Rarres1 KO MEFs. MEF cells were treated with nocodazole (50 ng/ml or 100 ng/ml) or DMSO for 48 hours, and flow cytometry and cell counting according to Example 1-10 were performed thereon.

RARRES1 expression = experiment: Restoration of RARRES1 expression by DNA methylation inhibitor, RT-PCR; format: cell-based, human; settings: for tested cell lines showing restored RARRES1 expression in a dose-dependent manner: 5, 25 and 100 uM for 5 days
Procedure: Total RNA was extracted from human cancer cell lines including prostate cancer, lung cancer, and breast cancer by using a TRIzol reagent (Invitrogen) according to the manufacturer's instructions, and 1 ug of total RNA was converted into cDNA with a Superscript® reverse transcriptase (Invitrogen). Primers used for human DNA were as follows: RARRES1-1-F ([…]), RARRES1-1-R ([…]), RARRES1-2-F ([…]), RARRES1-2-R ([…]), Cyclin B1-F ([…]), Cyclin B1-R ([…]), Actin-F ([…]), and Actin-R ([…]), and the primers respectively yielded PCR products with predicted sizes of 327 bp, 359 bp, 347 bp, and 626 bp. Primers used for mouse DNA were as follows: Rarres1-F([…]), Rarres1-R ([…]), Gapdh-F (TGCACCACCAACTGCTTA), and Gapdh-R (GGATGCAGGGATGATGTTC), and these primers respectively yielded PCR products with predicted sizes of 653 bp and 177 bp.
To determine whether promoter methylation was associated with the silencing of the RARRES1 expression in cancer cells, cells were treated with 5-aza-2′-deoxycytidine (5-aza-2-dC; 5, 25, and 100 uM) as an inhibitor of DNA methylation for 5 days.

CDK1 protein = experiment: Amount of CDK1 protein in cells transfected with RARRES1 and CDK1, treated with protein degradation inhibitors; format: cell-based; settings: cells transfected with RARRES1 along with CDK1
Procedure: […]
In addition, when cells were transfected with RARRES1 along with CDK1 using the method of Example 1-1, the amount of the CDK1 protein was reduced. To examine how a quantitative change in the CDK1 protein was regulated, cells were treated with protein degradation inhibitors.

[1] = tested on: embryonic epithelial cells; experiment: Spheroid-formation assay with or without CDK1 inhibitor; format: cell-based, mouse
Procedure: Mouse embryo fibroblasts (MEFs) and mouse embryo epithelial cells (MEEs) were derived from 13.5-day-old embryos as previously described. That is, after removal of the head and internal organs, embryos were rinsed with phosphate buffered saline (PBS), minced, and treated with trypsin/EDTA to obtain single cells. The MEFs was resuspended in DMEM containing 10% FBS, 2 mM L-glutamine, 0.1 mM MEM nonessential amino acids, 55 uM beta-mercaptoethanol, and 100 IU/ml penicillin, and 100 ug/ml streptomycin. Cell media and reagents were obtained from GIBCO (Paisley, England). The MEEs were cultured in a D-MEM/F-12 medium containing 1% FBS, 1 mg of insulin, 1 mg of hydrocortisone, 12.5 μg of EGF, 10 mg of ascorbic acid, 10 mg of transferin, 14.1 mg of phosphoethanolamine, Na selenite, 1 μg of cholera toxin, 6.5 μg of triiodo thyronine, 35 mg of bovine pituitary extract, ethanolamine, 50 IU/ml of penicillin, and 50 ug/ml of streptomycin. The cells were incubated at 37° C. in a 5% CO2-humidified chamber. After disintegration of the embryos, plating was considered passage 0. All experiments were carried out using cells within passage 5 from three different batches. The genotypes of the MEFs and MEEs were confirmed by genotyping PCR. At least three independently generated cell lines per genotype were used.
In spheroid-formation assay, as mentioned above, advanced DMEM/F12 media used for embryonic epithelial cell culture were employed. The cells from the embryo of Rarres1^+/+ and Rarres1^−/− mice were suspended and seeded in […] with or without RO3306, CDK1 inhibitor, in a 24-well plate at a density of 2,000 or 5,000 cells per well. The size and number of spheres formed while adding 300 μl of a medium once three to four days were measured.

[2] = some cancer cells (CWR22rv, T47D)

Compound: COC(=O)Nc1nc2ccc(C(=O)c3cccs3)cc2[nH]1 [nocodazole]
- cleavage of PARP and Caspase 3 (Rarres1 KO MEFs; KO cells compared to WT cells, nocodazole treated): decreased
- number of the cells after nocodazole treatment (Rarres1 KO MEFs; Rarres1-deficient MEFs versus WT MEFs, 50 or 100 ng/ml, 48 hours): less reduced
- cell death induced by nocodazole (Rarres1 KO MEFs; Rarres1-deficient MEFs versus WT MEFs, 50 or 100 ng/ml, 48 hours, dose-dependent): significantly reduced

Compound: Nc1ncn([C@H]2C[C@H](O)[C@@H](CO)O2)c(=O)n1 [5-aza-2-dC, 5-aza-2′-deoxycytidine]
- RARRES1 expression after treatment (RARRES1 expression; Calu3 and HCC70 cells having high mRNA levels of RARRES1): failed to have reintroduced RARRES1 expression
- mRNA level of the RARRES1 gene after treatment (RARRES1 expression; JIMT-1 cells): reduced
- tested cell lines showing restored RARRES1 expression in a dose-dependent manner (RARRES1 expression; breast cancer cell lines (8/10)): 80%
- tested cell lines showing restored RARRES1 expression in a dose-dependent manner (RARRES1 expression; lung cancer cell lines (4/5)): 80%
- tested cell lines showing restored RARRES1 expression in a dose-dependent manner (RARRES1 expression; prostate cancer cell lines (4/4)): 100%
- RARRES1 isoform 1 after treatment (RARRES1 expression; [2]): increased
- RARRES1 isoform 2 after treatment (RARRES1 expression; [2]): not detected

Compound: CO/C1=C\C(C)=C\[C@@H](C)[C@@H](O)[C@@H](C)C/C(C)=C/C=C/[C@H](OC)[C@@H]([C@@H](C)[C@@H](O)[C@H](C)[C@@]2(O)C[C@@H](O)[C@H](C)[C@@H](C(C)C)O2)OC1=O [BafA1, Bafilomycin A1]
- amount of the CDK1 protein, which had been decreased by RARRES1 (CDK1 protein): increased again

Compound: O=C1NC(=NCc2cccs2)S/C1=C\c1ccc2ncccc2c1 [RO3306]
- overall spheroid formation ([1]; RO3306-treated versus not treated, cells from Rarres1+/+ and Rarres1-/- embryos): significantly reduced
- sphere formation under RO3306 ([1]; embryonic epithelial cells from Rarres1-deficient mice): formed spheres
- sphere formation under RO3306 ([1]; embryonic epithelial cells of the control mice): barely formed spheres

Compound: CC(C)C[C@@H](C=O)NC(=O)[C@H](CC(C)C)NC(=O)[C@H](CC(C)C)NC(=O)OCc1ccccc1 [MG132] (Cbz-Leu-Leu-Leu-aldehyde)
- amount of the CDK1 protein, which had been decreased by RARRES1 (CDK1 protein): still decreased
